These results are taken from PMC11008251, “Distribution of 2,2′,5,5′-Tetrachlorobiphenyl (PCB52) Metabolites in Adolescent Rats after Acute Nose-Only Inhalation Exposure” (Environmental Science & Technology, 2024).

Read-outs that look alike come from different tables or passages of the source.

Details of data set [1]: method as in PMID 36804509. Conditions: 3 weeks after intraperitoneal administration of PCB52 100 mg/kg bw; cited from earlier work.
Data set [2] can be described thus: PCB52 and monohydroxylated metabolite tissue levels by GC-MS/MS after 4 h nose-only inhalation. In kind it is in vivo, Sprague–Dawley rats. Conditions: Sprague-Dawley, rat, inhaled. How it is done:
PCB52 vapor for the animal exposure was generated using a published protocol.[12] Briefly, 450 g of 3 mm diameter glass beads were added to a solution of 1.5 g of PCB52 in dichloromethane. The glass beads were then coated with PCB52 by evaporating dichloromethane in a water bath at 29 °C using a rotary evaporator (Buchi Rotavapor R-200, New Castle, DE) under reduced pressure. For the animal exposures, high-efficiency particulate air (HEPA)-filtered laboratory air was passed through the PCB52-coated glass beads at a flow rate of 12 L/min to expose animals to PCB52 vapor in a nose-only exposure apparatus (Figure 1A). The flask of PCB52-coated beads and mixing chamber were kept at 25.0 °C using a precision water bath to facilitate the volatilization of PCB52. The PCB52-laden air was passed through a mixing chamber and distributed to the nose-only inhalation apparatus at a flow rate of 4 L/min per tower (n = 3) and a sampling cartridge filled with 10 g of Amberlite XAD-2 polymeric absorbent resin (Sigma-Aldrich, St. Louis, MO) at a flow rate of 2 L/min. The specified flow rates were generated using flow meter-regulated pumps. The XAD-2 cartridge was used to capture PCB52 vapor to characterize the exposure atmosphere. A sham exposure group was exposed in parallel to HEPA-filtered clean air in an identical nose-only exposure system in an adjacent lab with no supplied PCB52.
The Institutional Animal Care and Use Committee of the University of Iowa approved all of the animal protocols. Animals were housed in a temperature- and humidity-controlled room (21 °C, 55% relative humidity) with a 12 h light/dark cycle in an Association for the Assessment and Accreditation of Laboratory Animal Care (AAALAC) accredited animal facility. Animals were provided with food (sterile Teklad 5% stock diet, Harlan, Madison, WI) and water ad libitum throughout the study. Thirty-six male and female Sprague–Dawley rats (7 weeks of age; Charles River, Wilmington, MA) were allowed to acclimate to the animal facility for 8 days after arrival. Prior to exposure, rats (227 ± 27 and 197 ± 13 g, male and female, respectively) were randomly assigned to the exposure groups (n = 6 per group) using a random number generated (Excel, version 2307). Animals were simultaneously exposed for 4 h to a low or high concentration of PCB52-laden per sex) or filtered lab air (Figure 1A). Exposure duration was limited to 4 h along with scheduled training days (30 min at 55 days of age and 2 h at 56 days of age) to acclimate animals and minimize stress. […] Animal exposure occurred for 4 h at 57 days of age. Rats are considered adolescents at this age.[38] Serum was collected immediately after the animals were removed from the nose-only apparatus by cardiac puncture under isoflurane anesthesia. Rats were perfused with saline, and organs were excised and stored at −80 °C. Body and organ weights, including brain, lungs, and thymus, were not altered by PCB52 inhalation regardless of sex or exposure (Tables S2 and S3).
PCB52 and its hydroxylated metabolites were extracted from tissues, serum, and cecum and intestinal content using a published protocol;[40],[41] see the Supporting Information. Briefly, PCB52 and its metabolites were extracted from homogenates by liquid–liquid extraction and cleaned by solid-phase extraction with acidified silica gel. PCB52 and metabolites were quantified in the multiple reaction monitoring setting (MRM) on an Agilent 7890 A GC system equipped with an Agilent 7000 Triple Quad and Agilent 7693 autosampler (Agilent Technologies, Santa Clara, CA); see the Supporting Information.
PCB52 and metabolite levels, adjusted for tissue wet weight, are reported as the mean ± standard deviation. Differences in PCB52 and metabolite levels from the GC-MS/MS analysis were analyzed with the Tobit regression model because some measurements are below the detection limit. […]

On the set-up of data set [3]: method as in PMID 24275706. The note with it: cited from earlier work.
On the set-up of data set [4]: method as in PMID 23582014. The note with it: male rats exposed acutely to PCB11 vapors; cited from earlier work.

Turning to `Oc1cc(Cl)c(-c2cc(Cl)ccc2Cl)cc1Cl` [4-OH-PCB52, 2,2′,5,5′-Tetrachlorobiphenyl-4-ol], the “detection frequency in the rat brain” value in data set [1] is given as 20%. Further, the concentration at 4 h was under 0.16 ng/g in data set [2] (both sexes, brain, irrespective of sex and exposure group, GC-MS/MS, read-out: level in the brain (below the detection limit)); 0.2 ng/g in data set [2] (female, adipose, female, high dose, mean, read-out: PCB or metabolite detected level, Adipose); 3 ng/g in data set [2] (female, cecum, female, high dose, mean, read-out: PCB or metabolite detected level, Cecum); 2 ng/g in data set [2] (female, cecum, female, low dose, mean, read-out: PCB or metabolite detected level, Cecum); 5 ng/g in data set [2] (female, intestinal content, female, high dose, mean, read-out: PCB or metabolite detected level, Intestinal content); 4 ng/g in data set [2] (female, intestinal content, female, low dose, mean, read-out: PCB or metabolite detected level, Intestinal content). In addition, the concentration at 4 h in data set [2] (female, liver, female, high dose, mean, read-out: PCB or metabolite detected level, Liver) amounted to 0.2 ng/g; in data set [2] (female, liver, female, low dose, mean, read-out: PCB or metabolite detected level, Liver) it was 0.2 ng/g; in data set [2] (female, lung, female, high dose, mean, read-out: PCB or metabolite detected level, Lung), 0.2 ng/g; in data set [2] (female, lung, female, low dose, mean, read-out: PCB or metabolite detected level, Lung) it was 0.1 ng/g; in data set [2] (female, serum, female, high dose, mean, read-out: PCB or metabolite detected level, Serum) it was 0.1 ng/g; in data set [2] (female, serum, female, low dose, mean, read-out: PCB or metabolite detected level, Serum), 0.4 ng/g. The concentration at 4 h is 0.2 ng/g in data set [2] (male, adipose, male, high dose, mean, read-out: PCB or metabolite detected level, Adipose); 2 ng/g in data set [2] (male, cecum, male, high dose, mean, read-out: PCB or metabolite detected level, Cecum); 1 ng/g in data set [2] (male, cecum, male, low dose, mean, read-out: PCB or metabolite detected level, Cecum); 0.4 ng/g in data set [2] (male, intestinal content, male, high dose, mean, read-out: PCB or metabolite detected level, Intestinal content); 0.3 ng/g in data set [2] (male, liver, male, high dose, mean, read-out: PCB or metabolite detected level, Liver); 0.1 ng/g in data set [2] (male, liver, male, low dose, mean, read-out: PCB or metabolite detected level, Liver). The concentration at 4 h came to 0.2 ng/g in data set [2] (male, lung, male, high dose, mean, read-out: PCB or metabolite detected level, Lung); 0.1 ng/g in data set [2] (male, lung, male, low dose, mean, read-out: PCB or metabolite detected level, Lung); 0.4 ng/g in data set [2] (male, serum, male, high dose, mean, read-out: PCB or metabolite detected level, Serum); 0.4 ng/g in data set [2] (male, serum, male, low dose, mean, read-out: PCB or metabolite detected level, Serum).
Take `Clc1cccc(-c2cccc(Cl)c2)c1` [PCB11, 3,3′-dichlorobiphenyl]: the “time to radioactivity in the systemic circulation” value in data set [3] (intratracheally instilled 14C-labeled PCB11) was at most 12 min. For the same compound, in data set [3] (postexposure), the “time of highest levels of extractable PCB11 metabolites in the jejunum and ileum” value is “approximately 100 min”. In addition, the “rank order of tissue levels” value in data set [4] is recorded as “lung > serum > liver”.
